The text below walks through data of ChEMBL document CHEMBL1152139, “Pterocarpans and flavanones from Sophora flavescens displaying potent neuraminidase inhibition” (Bioorg Med Chem Lett, 2008).

The IC50 is the concentration that inhibits the measured activity by half. A low value points to higher potency. As usually defined, the Ki is a dissociation constant, usually derived from enzyme kinetics or from competition with a known ligand. A high value points to weaker binding.

Experiment [1] is described as follows: Inhibition of mouse liver sialidase.
Experiment [2] can be described thus: Inhibition of Clostridium perfringens neuraminidase.
A short description of experiment [3]: Inhibition of Clostridium perfringens neuraminidase by Lineweaver-Burke plot.

In turn, `O=C(O)[C@H]1O[C@@H](Oc2c(O)c(O[C@@H]3O[C@H](C(=O)O)[C@@H](O)[C@H](O)[C@H]3O)c3oc(-c4ccc(O)cc4)cc(=O)c3c2O)[C@H](O)[C@@H](O)[C@@H]1O` came in with a half-maximal inhibitory concentration (IC50) in experiment [1] of 40 µM.
`C=C(C)[C@H](CCC(C)(C)O)Cc1c(O)cc(OC)c2c1O[C@H](c1ccc(O)cc1O)CC2=O` [KURARINOL] returned a 50% inhibitory concentration (IC50) in experiment [2] of 17 µM. In experiment [3], affinity was put at a Ki of 19.7 µM.
For `C=C(C)C(CC=C(C)C)Cc1c(O)cc(OC)c2c1O[C@H](c1ccc(O)cc1O)CC2=O` (stereo not given in full) [KURARINONE], in that order: 15.1 µM and 18.8 µM.
In the same order, the values of `C=C(C)[C@H](CC=C(C)C)Cc1c(O)cc(O)c2c1O[C@H](c1ccccc1O)CC2=O` [KUSHENOL A] are 14.8 µM and 17.1 µM.
For `C=C(C)[C@H](CCC(C)(C)O)Cc1c(O)cc(O)c2c1O[C@H](c1ccccc1O)CC2=O` [KUSHENOL T], in that order: 12.1 µM and 10.8 µM.
In experiment [2], `Oc1ccc2c(c1)OC[C@H]1c3cc4c(cc3O[C@@H]21)OCO4` [MAACKIAIN] came in with a concentration for half-maximal inhibition (IC50) of 3.2 µM. Besides, the inhibition constant Ki in experiment [3] was determined as 2.1 µM.
For the compound `O=c1c2cc(O)c(O)cc2oc2cc(O)c([C@@H]3O[C@H](CO)[C@@H](O)[C@H](O)[C@H]3O)c(O)c12` [MANGIFERIN], the midpoint of inhibition in experiment [2], the IC50, lay at 16.2 µM.
On to `C=C(C)[C@H](CCC(C)(C)O)Cc1c(O)cc(O)c2c1O[C@H](c1ccc(O)cc1O)CC2=O` [NORKURARINOL], for which the IC50 in experiment [2] amounted to 18.3 µM. In experiment [3], this compound returned an inhibition constant Ki of 22.7 µM.
In the same order, the values of `COc1ccc2c(c1)OC[C@H]1c3cc4c(cc3O[C@@H]21)OCO4` [PTEROCARPIN] are 1.4 µM and 1.7 µM.
For `C=C(C)[C@H](CC=C(C)C)Cc1c(O)cc(O)c2c1O[C@H](c1ccc(O)cc1O)CC2=O` [SOPHORAFLAVANONE G], in that order: 13.5 µM and 20 µM.
In the same order, the values of `OC[C@H]1O[C@@H](Oc2ccc3c(c2)OC[C@H]2c4cc5c(cc4O[C@@H]32)OCO5)[C@H](O)[C@@H](O)[C@@H]1O` [TRIFOLIRHIZIN] are 237 µM and 190 µM.
